The values below come from patent US20190345150A1, “MICROBIOCIDAL OXADIAZOLE DERIVATIVES” (SYNGENTA PARTICIPATIONS AG, priority 2016, published 2019).

One data set concerns Phakopsora pachyrhizi. As to the kind of experiment: Phakopsora pachyrhizi / soybean / leaf disc preventative (Asian soybean rust). Conditions: foliar, 200 ppm in the applied formulation, soybean leaf disks, preventative (inoculated 1 day after application), compared to untreated control, read-out: disease control. The class given is in vivo. As to the method: Leaf disks or leaf segments of various plant species are cut from plants grown in a greenhouse. The cut leaf disks or segments are placed in multiwell plates (24-well format) onto water agar. The leaf disks are sprayed with a test solution before (preventative) or after (curative) inoculation. Compounds to be tested are prepared as DMSO solutions (max. 10 mg/ml) which are diluted to the appropriate concentration with 0.025% Tween20 just before spraying. The inoculated leaf disks or segments are incubated under defined conditions (temperature, relative humidity, light, etc.) according to the respective test system. A single evaluation of disease level is carried out 3 to 14 days after inoculation, depending on the pathosystem. Percent disease control relative to the untreated check leaf disks or segments is then calculated. Soybean leaf disks are placed on water agar in multiwell plates (24-well format) and sprayed with the formulated test compound diluted in water. One day after application leaf discs are inoculated by spraying a spore suspension on the lower leaf surface. After an incubation period in a climate cabinet of 24-36 hours in darkness at 20° C. and 75% rh leaf disc are kept at 20° C. with 12 h light/day and 75% rh. The activity of a compound is assessed as percent disease control compared to untreated when an appropriate level of disease damage appears in untreated check leaf disks (12 to 14 days after application).

Data set [1] has as its system Glomerella laqenarium (Colletotrichum laqenarium). As to the kind of experiment: Glomerella lagenarium liquid culture / cucumber / preventative (anthracnose). The class given is cell-based. Conditions: 20 ppm in the applied formulation, liquid culture in PDB, growth inhibition measured photometrically 3 to 4 days after application, compared to untreated control, read-out: disease control. In outline: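 Conidia from cryogenic storage were mixed into potato dextrose broth and added to DMSO solutions of test compound in microtiter plates. Plates were incubated at 24° C, and growth inhibition was read photometrically 3 to 4 days after application.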

The test system of data set [2] is Puccinia recondita f. Sp. Tritici. As to the kind of experiment: Puccinia recondita f. sp. tritici / wheat / leaf disc preventative (brown rust). The class given is in vivo. Conditions: foliar, 200 ppm in the applied formulation, wheat leaf segments cv. Kanzler, preventative (inoculated 1 day after application), compared to untreated control, read-out: disease control. As to the method:
Leaf disks or leaf segments of various plant species are cut from plants grown in a greenhouse. The cut leaf disks or segments are placed in multiwell plates (24-well format) onto water agar. The leaf disks are sprayed with a test solution before (preventative) or after (curative) inoculation. Compounds to be tested are prepared as DMSO solutions (max. 10 mg/ml) which are diluted to the appropriate concentration with 0.025% Tween20 just before spraying. The inoculated leaf disks or segments are incubated under defined conditions (temperature, relative humidity, light, etc.) according to the respective test system. A single evaluation of disease level is carried out 3 to 14 days after inoculation, depending on the pathosystem. Percent disease control relative to the untreated check leaf disks or segments is then calculated. Wheat leaf segments cv. Kanzler were placed on agar in multiwell plates (24-well format) and sprayed with the formulated test compound diluted in water. The leaf disks were inoculated with a spore suspension of the fungus 1 day after application. The inoculated leaf segments were incubated at 19° C. and 75% relative humidity (rh) under a light regime of 12 hours light/12 hours darkness in a climate cabinet and the activity of a compound was assessed as percent disease control compared to untreated when an appropriate level of disease damage appears in untreated check leaf segments (7 to 9 days after application).

For data set [3] the test system is unchanged. As to the kind of experiment: Puccinia recondita f. sp. tritici / wheat / leaf disc curative (brown rust). The class given is in vivo. Conditions: foliar, 24 h, 200 ppm in the applied formulation, wheat leaf segments cv. Kanzler, curative (applied 1 day after inoculation), compared to untreated control, read-out: disease control. As to the method:
Leaf disks or leaf segments of various plant species are cut from plants grown in a greenhouse. The cut leaf disks or segments are placed in multiwell plates (24-well format) onto water agar. The leaf disks are sprayed with a test solution before (preventative) or after (curative) inoculation. Compounds to be tested are prepared as DMSO solutions (max. 10 mg/ml) which are diluted to the appropriate concentration with 0.025% Tween20 just before spraying. The inoculated leaf disks or segments are incubated under defined conditions (temperature, relative humidity, light, etc.) according to the respective test system. A single evaluation of disease level is carried out 3 to 14 days after inoculation, depending on the pathosystem. Percent disease control relative to the untreated check leaf disks or segments is then calculated. Wheat leaf segments cv. Kanzler are placed on agar in multiwell plates (24-well format). The leaf segments are then inoculated with a spore suspension of the fungus. Plates were stored in darkness at 19° C. and 75% relative humidity. The formulated test compound diluted in water was applied 1 day after inoculation. The leaf segments were incubated at 19° C. and 75% relative humidity under a light regime of 12 hours light/12 hours darkness in a climate cabinet and the activity of a compound was assessed as percent disease control compared to untreated when an appropriate level of disease damage appears in untreated check leaf segments (6 to 8 days after application).

Bounds are passed on as bounds.

`CC(Oc1nnnn1C)c1ccc(-c2noc(C(F)(F)F)n2)cc1` (stereo not drawn) [Compound 1.22, 3-[4-[1-(1-methyltetrazol-5-yl)oxyethyl]phenyl]-5-(trifluoromethyl)-1,2,4-oxadiazole] showed a melting point of 104 to 106 °C. The pest or weed control at 200 ppm in the data set with Phakopsora pachyrhizi was ≥ 80%. Further, the inhibition of growth at 20 ppm in data set [1] is ≥ 80%. Besides, the pest or weed control at 200 ppm in data set [2] is ≥ 80%. Also, the pest or weed control at 200 ppm in data set [3] was ≥ 80%.

With `CN(C)C(=O)OCc1ccc(-c2noc(C(F)(F)F)n2)cc1` [Compound 3.1, [4-[5-(trifluoromethyl)-1,2,4-oxadiazol-3-yl]phenyl]methyl N,N-dimethylcarbamate], the melting point fell in the range of 95 to 97 °C. In the data set with Phakopsora pachyrhizi, the pest or weed control at 200 ppm was ≥ 80%. In addition, in data set [1], the inhibition of growth at 20 ppm is ≥ 80%. The pest or weed control at 200 ppm in data set [2] was ≥ 80%. Besides, the pest or weed control at 200 ppm in data set [3] is ≥ 80%.

`C/C(=N/OCc1ccc(-c2noc(C(F)(F)F)n2)cc1)n1ccnc1` [Compound 4.2, (Z)-1-imidazol-1-yl-N-[[4-[5-(trifluoromethyl)-1,2,4-oxadiazol-3-yl]phenyl]methoxy]ethanimine] displayed a melting point of 51 to 53 °C. In the data set on Phakopsora pachyrhizi, the pest or weed control at 200 ppm was ≥ 80%. The inhibition of growth at 20 ppm in data set [1] was ≥ 80%. Further, the pest or weed control at 200 ppm in data set [2] was ≥ 80%. The pest or weed control at 200 ppm in data set [3] was ≥ 80%.

A word on the melting point: it is the temperature of the solid-liquid transition.
